Where only a bound is given, the exact number is not on record here.

The values that follow come from patent US20250270216A1, “ANTI-INFECTIVE AGENTS” (UNIVERSITY OF DUNDEE, priority 2022, published 2025).

The test deals with T1, Human lysyl tRNA Synthetase (KRS) (Homo sapiens, UniProt Q15046).
T1 construct: His tag with PreScission site (His PP pET15b); made in house; host or cells: E. coli BL21 (DE3)
Kind of test: In vitro inhibition of human lysyl tRNA synthetase (KRS), Biomol green phosphate detection. It counts as biochemical. The conditions noted are these: 3.5 μM ATP, 6 μM L-Lysine, 5 h room temperature; read-out: Hs KRS pIC50 (converted). The procedure:
The gene coding for Human KRS, codon optimized for expression in E. coli, was obtained from Genscript and cloned into a His PP pET15b vector using Nde1 and Xho1 restriction sites. The resulting vector was used to transform BL21 (DE3) competent cells for protein expression. A 120 ml overnight culture was set up and grown at 37° C. 200 rpm for 16 h and used the next day to inoculate 6 litres of Autoinduction+AMP medium. This culture was grown at 37° C. for 4 h then 20° C. for 20 h. The cells were harvested by centrifugation at 3,500 g for 30 min then stored at −20° C. The resulting cell pellet was 50 g. Lysis buffer (150 ml, 25 mM HEPES/500 mM NaCl/20 mM imidazole/2 mM DTT/10% glycerol pH 7.5/protease inhibitor tablets/DNAase) was added and the pellets for defrosted at room temperature for approximately 10 min. The slurry was then passed through a Cell Disrupter (Constant Systems) set at […] to lyse the cells. The sample was then centrifuged at 40,000 g for 20 min. The supernatant was then filtered using syringe filters to 0.45 μm. The supernatant was loaded onto a 5 ml HiTrap Ni HP column that had been equilibrated with BufferA (25 mM HEPES/500 mM NaCl/20 mM Imidazole/2 mM DTT/10% Glycerol pH 7.5) at 5 ml/min using an AKTA Pure system. Once loaded the column was washed with 10 column volumes buffer A. A 5% step of Buffer B (25 mM HEPES/500 mM NaCl/500 mM Imidazole/2 mM DTT/10% Glycerol pH 7.5) was then used to wash off His rich contaminating proteins. A gradient of 5-50% B was used to elute the protein. Approximately 55 mg of protein was present in the fractions containing the HsKRS protein. The sample was then passed through a 0.2 μm filter, before loading onto a XK26/60 Superdex 200 column equilibrated with Buffer C (25 mM HEPES/150 mM NaCl/2 mM DTT/10% glycerol pH 7.0) using an AKTA Pure system at 4° C. at 2 ml/min. The sample was then dialyzed into 25 mM HEPES/500 mM NaCl//2 mM DTT/10% glycerol/0.25% azide pH 7.0. The protein was concentrated to 1 mg/ml and frozen at −80° C. Approximately 23 mg of protein was produced.
Assay Method for Measurement of In Vitro Inhibition of Human lysyl tRNA Synthetase (KRS)
Potency of compounds was determined in 10 points dose-response inhibition curves. Compounds were transferred into 384-well clear bottom plates (Greiner Bio-One, 781101) using an Echo 550 acoustic dispenser (Labcyte). Using an automatic liquid dispenser, 50 μL reaction mixes were prepared by adding 25 μL of substrate mix into all wells followed by the addition of 25 μL enzyme mix into all wells (final reaction: 30 mM Tris-HCl, pH 8.0, 40 mM MgCl2, 140 mM NaCl, 30 mM KCl, 0.01% Brij-35, 1 mM DTT, 3.5 μM ATP, 6 μM L-Lysine, 200 nM […] and 0.5 U/mL Pyrophosphatase). Complete inhibition control reactions were performed in the presence of 100 μM of control compoundand the plates were incubated at room temperature for 5 h. Reactions were stopped by the addition of Biomol green (50 μL: Enzo Life Sciences) with the amount of free phosphate detected by measuring absorbance (650 nm) after 20 min further incubation (BMG Pherastar plate reader). Counter screen assays to eliminate direct inhibition of pyrophsphatase were performed using 0.5 U/mL pyrophosphatase and 3 μM pyrophosphate as substrate in the same assay buffer (30 mM Tris-HCl, pH 8.0, 40 mM MgCl2, 140 mM NaCl, 30 mM KCl, 0.01% Brij-35, 1 mM DTT) for 5 hours at room temperature. Biomol green was added and incubated for 20 min before detection as above. Samples were run in duplicate and data was processed and analysed using ActivityBase (IDBS).

T1 sequence (Q15046 whole entry): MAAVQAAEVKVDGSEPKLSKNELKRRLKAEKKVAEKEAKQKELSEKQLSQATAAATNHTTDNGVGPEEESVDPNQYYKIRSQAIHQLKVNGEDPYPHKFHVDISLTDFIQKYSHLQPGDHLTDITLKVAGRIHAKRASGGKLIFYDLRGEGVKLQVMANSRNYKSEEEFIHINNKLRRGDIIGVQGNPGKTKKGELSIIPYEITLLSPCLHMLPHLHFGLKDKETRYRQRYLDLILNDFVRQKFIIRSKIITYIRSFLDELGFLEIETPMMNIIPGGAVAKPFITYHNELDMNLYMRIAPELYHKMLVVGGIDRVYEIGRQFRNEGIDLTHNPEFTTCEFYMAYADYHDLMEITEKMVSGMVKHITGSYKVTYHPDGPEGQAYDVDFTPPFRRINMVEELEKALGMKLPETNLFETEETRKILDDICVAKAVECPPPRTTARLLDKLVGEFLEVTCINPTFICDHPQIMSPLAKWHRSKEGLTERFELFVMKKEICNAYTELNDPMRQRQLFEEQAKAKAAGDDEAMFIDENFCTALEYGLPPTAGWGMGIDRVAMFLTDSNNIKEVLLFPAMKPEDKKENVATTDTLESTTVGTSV

`Nc1nc2c(c(C(F)(F)F)n1)C(=O)N(CC1CCCC3(CC3)C1)C2` (racemic) [Compound 4, 2-amino-6-(spiro[2.5]octan-5-ylmethyl)-4-(trifluoromethyl)-6,7-dihydro-5H-pyrrolo[3,4-d]pyrimidin-5-one]: the IC50 is > 100 µM. To `Nc1nc2c(c(C(F)(F)F)n1)C(=O)N(C[C@@H]1CCC[C@H](C(F)(F)F)C1)C2` [Compound 1, 2-amino-4-(trifluoromethyl)-6-(((1R,3S)-3-(trifluoromethyl)cyclohexyl)methyl)-6,7-dihydro-5H-pyrrolo[3,4-d]pyrimidin-5-one] belongs 20 µM; to `Cc1nc(N)nc2c1C(=O)N(C[C@@H]1CCC[C@H](C(F)(F)F)C1)C2` [Compound 2, 2-amino-4-methyl-6-(((1R,3S)-3-(trifluoromethyl)cyclohexyl)methyl)-6,7-dihydro-5H-pyrrolo[3,4-d]pyrimidin-5-one], 20 µM. Turning to `Nc1nc2c(c(C(F)F)n1)C(=O)N(C[C@@H]1CCC[C@H](C(F)(F)F)C1)C2` [Compound 3, 2-amino-4-(difluoromethyl)-6-(((1R,3S)-3-(trifluoromethyl)cyclohexyl)methyl)-6,7-dihydro-5H-pyrrolo[3,4-d]pyrimidin-5-one], the IC50 was > 100 µM.
